Laboratory results: patent US9113629B2, “4-amino-6-(4-substituted-phenyl)-picolinates and 6-amino-2-(4-substituted-phenyl)-pyrimidine-4-carboxylates and their use as herbicides” (DOW AGROSCIENCES LLC, priority 2013, dated 2015)
Like-named read-outs stand apart in the source and are kept apart here.

Legend:
[1] = test system: Key Broadleaf Weed and Crop Species; experiment: Post-emergent Test II herbicidal activity (Table 5); type: in vivo; conditions: post-emergence, 336 h, post-emergent, 14 days after application; for pest or weed control at 70 g/ha: 70 g ai/ha; for pest or weed control at 140 g/ha: 140 g ai/ha
Procedure, shortened: (§1)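 Percent injury, 0 (none) to 100 (complete kill), was judged visually 14 d after spraying young plants at the first or second true leaf stage with compound in an acetone/DMSO aqueous carrier at 187 L/ha. Plants were kept in a greenhouse at 23–29 °C by day.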

[2] = test system: Key Grass and Sedge Weeds as well as Grass Crops; experiment: Post-emergent Test II herbicidal activity (Table 6); type: in vivo; conditions: post-emergence, 336 h; for pest or weed control at 70 g/ha: application rate 70 g ai/ha; for pest or weed control at 140 g/ha: application rate 140 g ai/ha
Procedure, shortened: as §1

[3] = ABUTH: velvetleaf (Abutilon theophrasti), read-out: Visual Growth Reduction (%) 14 Days After Application ABUTH
[4] = AMARE: redroot pigweed (Amaranthus retroflexus), read-out: Visual Growth Reduction (%) 14 Days After Application AMARE
[5] = BRSNN: oilseed-rape, canola (Brassica napus), read-out: Visual Growth Reduction (%) 14 Days After Application BRSNN
[6] = CHEAL: lambsquarters (Chenopodium album), read-out: Visual Growth Reduction (%) 14 Days After Application CHEAL
[7] = EPHHL: wild poinsettia (Euphorbia heterophylla), read-out: Visual Growth Reduction (%) 14 Days After Application EPHHL
[8] = HELAN: sunflower (Helianthus annuus), read-out: Visual Growth Reduction (%) 14 Days After Application HELAN
[9] = VIOTR: wild pansy (Viola tricolor), read-out: Visual Growth Reduction (%) 14 Days After Application VIOTR
[10] = Triticum aestivum, TRZSS (wheat), read-out: Visual Growth Reduction (%) 14 Days After Application, TRZSS
[11] = CYPES: yellow nutsedge (Cyperus esculentus), read-out: Visual Growth Reduction (%) 14 Days After Application, CYPES
[12] = DIGSA: crabgrass (Digitaria sanguinalis), read-out: Visual Growth Reduction (%) 14 Days After Application, DIGSA
[13] = ECHCG: barnyardgrass (Echinochloa crus-galli), read-out: Visual Growth Reduction (%) 14 Days After Application, ECHCG
[14] = ORYSA: rice (Oryza sativa), read-out: Visual Growth Reduction (%) 14 Days After Application, ORYSA
[15] = SETFA: giant foxtail (Setaria faberi), read-out: Visual Growth Reduction (%) 14 Days After Application, SETFA
[16] = SORVU: grain sorghum (Sorghum vulgare), read-out: Visual Growth Reduction (%) 14 Days After Application, SORVU
[17] = ZEAMX: maize, corn (Zea mays), read-out: Visual Growth Reduction (%) 14 Days After Application, ZEAMX

Row | SMILES | pest or weed control at 70 g/ha [1, 3] [%] | pest or weed control at 140 g/ha [1, 3] [%] | pest or weed control at 70 g/ha [1, 4] [%] | pest or weed control at 140 g/ha [1, 4] [%] | pest or weed control at 70 g/ha [1, 5] [%] | pest or weed control at 140 g/ha [1, 5] [%] | pest or weed control at 70 g/ha [1, 6] [%] | pest or weed control at 140 g/ha [1, 6] [%] | pest or weed control at 70 g/ha [1, 7] [%] | pest or weed control at 140 g/ha [1, 7] [%] | pest or weed control at 70 g/ha [1, 8] [%] | pest or weed control at 140 g/ha [1, 8] [%] | pest or weed control at 70 g/ha [1, 9] [%] | pest or weed control at 140 g/ha [1, 9] [%] | pest or weed control at 70 g/ha [2, 10] [%] | pest or weed control at 140 g/ha [2, 10] [%] | pest or weed control at 70 g/ha [2, 11] [%] | pest or weed control at 140 g/ha [2, 11] [%] | pest or weed control at 140 g/ha [2, 12] [%] | pest or weed control at 70 g/ha [2, 13] [%] | further results
1 | COC(=O)c1nc(-c2cc(F)c(Br)cc2F)nc(N)c1OC [Compound 2] | 95 to 100 | 95 to 100 | 85 to 94 | 85 to 94 | 95 to 100 | 95 to 100 | 95 to 100 | 95 to 100 | 95 to 100 | 95 to 100 | 95 to 100 | 95 to 100 | 30 to 44 | 95 to 100 | 45 to 59 | 45 to 59 | 60 to 74 | 60 to 74 | 60 to 74 | 60 to 74 | pest or weed control at 140 g/ha [2, 13]: 60 to 74%; pest or weed control at 70 g/ha [2, 14]: 0 to 29%; pest or weed control at 140 g/ha [2, 14]: 0 to 29%; pest or weed control at 70 g/ha [2, 15]: 45 to 59%; pest or weed control at 140 g/ha [2, 15]: 60 to 74%; pest or weed control at 70 g/ha [2, 16]: 30 to 44%; pest or weed control at 140 g/ha [2, 16]: 60 to 74%; pest or weed control at 70 g/ha [2, 17]: 75 to 84%; pest or weed control at 140 g/ha [2, 17]: 75 to 84%; melting point: 186 to 187 °C
2 | Nc1cc(-c2cc(F)c(I)cc2F)nc(C(=O)O)c1Cl [Compound 131] | 95 to 100 | 95 to 100 | 95 to 100 | 95 to 100 | 95 to 100 | 95 to 100 | 95 to 100 | 95 to 100 | 95 to 100 | 95 to 100 | 85 to 94 | 95 to 100 | 95 to 100 | 95 to 100 | 60 to 74 | 75 to 84 | 85 to 94 | 85 to 94 | 75 to 84 | 95 to 100 | pest or weed control at 70 g/ha [2, 12]: 75 to 84%; pest or weed control at 140 g/ha [2, 13]: 95 to 100%; pest or weed control at 70 g/ha [2, 14]: 0 to 29%; pest or weed control at 140 g/ha [2, 14]: 30 to 44%; pest or weed control at 70 g/ha [2, 15]: 95 to 100%; pest or weed control at 140 g/ha [2, 15]: 95 to 100%; pest or weed control at 70 g/ha [2, 16]: 60 to 74%; pest or weed control at 140 g/ha [2, 16]: 75 to 84%; pest or weed control at 70 g/ha [2, 17]: 85 to 94%; pest or weed control at 140 g/ha [2, 17]: 85 to 94%; melting point: 173 to 175 °C
3 | COC(=O)c1nc(-c2ccc(Br)c(F)c2)c(C)c(N)c1Cl [Compound 112, Methyl 4-amino-6-(4-bromo-3-fluorophenyl)-3-chloro-5-methylpicolinate] | 95 to 100 | 95 to 100 | 95 to 100 | 95 to 100 | 85 to 94 | 85 to 94 | 85 to 94 | 85 to 94 | 0 to 29 | 0 to 29 | 95 to 100 | 95 to 100 | 0 to 29 | 0 to 29 | 45 to 59 | 60 to 74 | 95 to 100 | 95 to 100 | 60 to 74 | 60 to 74 | pest or weed control at 70 g/ha [2, 12]: 60 to 74%; pest or weed control at 140 g/ha [2, 13]: 60 to 74%; pest or weed control at 70 g/ha [2, 14]: 0 to 29%; pest or weed control at 140 g/ha [2, 14]: 0 to 29%; pest or weed control at 70 g/ha [2, 15]: 85 to 94%; pest or weed control at 140 g/ha [2, 15]: 95 to 100%; pest or weed control at 70 g/ha [2, 16]: 85 to 94%; pest or weed control at 140 g/ha [2, 16]: 85 to 94%; pest or weed control at 70 g/ha [2, 17]: 60 to 74%; pest or weed control at 140 g/ha [2, 17]: 60 to 74%; melting point: 134 to 137 °C
4 | COC(=O)c1nc(-c2ccc(C#N)cc2)c(C)c(N)c1Cl [Compound 83, Methyl 4-amino-3-chloro-6-(4-cyanophenyl)-5-methylpicolinate] | 0 to 29 | 30 to 44 | 0 to 29 | 0 to 29 | 0 to 29 | 0 to 29 | 0 to 29 | 0 to 29 | 0 to 29 | 0 to 29 | 85 to 94 | 85 to 94 | 0 to 29 | 0 to 29 | 0 to 29 | 0 to 29 | 0 to 29 | 0 to 29 | 0 to 29 | 0 to 29 | pest or weed control at 70 g/ha [2, 12]: 0 to 29%; pest or weed control at 140 g/ha [2, 13]: 0 to 29%; pest or weed control at 70 g/ha [2, 14]: 0 to 29%; pest or weed control at 140 g/ha [2, 14]: 0 to 29%; pest or weed control at 70 g/ha [2, 15]: 0 to 29%; pest or weed control at 140 g/ha [2, 15]: 0 to 29%; pest or weed control at 70 g/ha [2, 16]: 0 to 29%; pest or weed control at 140 g/ha [2, 16]: 0 to 29%; pest or weed control at 70 g/ha [2, 17]: 0 to 29%; pest or weed control at 140 g/ha [2, 17]: 0 to 29%; melting point: 145 to 148 °C
